Reference: patent publication US20160046618A1, “Cyclopropyl Fused Thiazin-2-Amine Compounds as Beta-Secretase Inhibitors and Methods of Use” (AMGEN INC., priority 2014, published 2016)
Where two headings read alike, the source gives them in different places.

Experiments:
Aβ 40 in rat CSF = experiment: In vivo inhibition of beta-secretase: Aβ40 reduction in rat CSF; settings: after 4 h
Text: (§1) In Vivo Inhibition of Beta-Secretase
Several animal models, including mouse, rat, dog, and monkey, may be used to screen for inhibition of beta-secretase activity in vivo following administration of a test compound sample. Animals used in this invention can be wild type, transgenic, or gene knockout animals. For example, the Tg2576 mouse model, prepared and conducted as described in Hsiao et al., 1996, Science 274, 99-102, and other non-transgenic or gene knockout animals are useful to analyze in vivo inhibition of Amyloid beta peptide (Abeta) production in the presence of inhibitory test compounds. Generally, 2 to 18 month old Tg2576 mice, gene knockout mice or non-transgenic animals are administered test compounds formulated in vehicles, such as cyclodextran, phosphate buffers, hydroxypropyl methylcellulose or other suitable vehicles. One to twenty-four hours following the administration of compound, animals are sacrificed, and brains as well as cerebrospinal fluid (CSF) and plasma are removed for analysis of A-beta levels and drug or test compound concentrations (Dovey et al., 2001, Journal of Neurochemistry, 76,173-181) Beginning at time 0, animals are administered by oral gavage, or other means of delivery such as intravenous injection, an inhibitory test compound of up to 100 mg/kg in a standard, conventional formulation, such as 2% hydroxypropyl methylcellulose, 1% Tween80. A separate group of animals receive 2% hydroxypropyl methylcellulose, 1% Tween80 alone, containing no test compound, and serve as a vehicle-control group. At the end of the test period, animals are sacrificed and brain tissues, plasma or cerebrospinal fluid are collected. […] Homogenates are centrifuged at 355,000 g, 4° C. for 30 minutes. CSF or brain supernatants are then analyzed for the presence of A-beta peptide by specific sandwich ELISA assays based on ECL (Electrochemiluminescence) technology. For example, rat Abeta40 is measured using biotinylated-4G8 (Signet) as a capture antibody and Fab40 (an in-house antibody specific to the C-terminal of Abeta40) as a detection antibody. For example, 4 hours after administration of 30 mg/kg oral dose of the test compound in 2% hydroxypropyl methylcellulose, 1% Tween80 (pH2.2) to 200 g male Sprague Dawley rats, amyloid beta peptide levels are measured for reduction by X % and Y % in cerebrospinal fluid and brain, respectively, when compared to the levels measured in the vehicle-treated or control mice.
(§2) Actual vehicles used: Oral: 2% HPMC, 1% Tween80, pH 2.2
The compounds of the invention may be shown to reduce the formation and/or deposition of amyloid beta peptide in the cerebrospinal fluid (CSF) as well as in the brain of a mouse or rat at either 3 mpk, 10 mpk or 30 mpk (mpk=mg compound per kg weight of the animal) dosing concentrations after 4 h.

human recombinant BACE2 = human recombinant BACE2 (Homo sapiens (Human), UniProt Q9Y5Z0); experiment: In vitro enzymatic BACE2 FRET assay; assay type: biochemical; settings: read-out: IC50 IP (μM) BACE2 enzyme
In short: (§3)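 Read-out: dequenched fluorescence, excitation 488 nm, emission 590 nm, after proteolysis of a quenched peptide spanning the BACE cleavage site. Substrate at 50 nM, 1 h incubation, termination by Tris addition to neutral pH.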

[1] = test system: Aβ40 in conditioned medium of cells stably expressing Amyloid Precursor Protein (APP); experiment: In vitro BACE-1 cell-based assay (Aβ40 sandwich ELISA); settings: read-out: IC50 IP (μM) BACE1 cell
In short: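 Read-out: time-resolved fluorescence (Streptavidin-Europium) of Aβ40 captured by pAb40 and detected with biotinylated 6E10 from supernatants of APP-stable cells. Cells were exposed to compound for 24 h, 10-point dose response, top dose 100 μM or 10 μM, 0.1% DMSO. IC50 fitted to percent of control.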

human recombinant BACE1 = human recombinant BACE1 (Homo sapiens (Human), UniProt P56817); experiment: In vitro enzymatic BACE1 FRET assay; assay type: biochemical; settings: read-out: IC50 IP (μM) BACE1 enzyme
In short: as §3

Recombinant Cat D = Recombinant Cat D (Homo sapiens (Human), UniProt P07339); experiment: In vitro enzymatic Cathepsin D (Cat D) FRET assay; assay type: biochemical; settings: read-out: IC50 IP (μM) CatD
In short: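 Fluorescence at 500 nm excitation and 580 nm emission reports cleavage of a quenched fluorophore–quencher peptide (20 nM) by CHO-expressed Cat D. Reactions ran one hour in 0.05 M citrate pH 3.5, 5 mM CHAPS, 10% DMSO final before a Tris stop raised pH to neutrality.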

Aβ 40 in rat brain = experiment: In vivo inhibition of beta-secretase: Aβ40 reduction in rat brain; settings: after 4 h
Text: as §1
Several animal models, including mouse, rat, dog, and monkey, may be used to screen for inhibition of beta-secretase activity in vivo following administration of a test compound sample. Animals used in this invention can be wild type, transgenic, or gene knockout animals. […] One to twenty-four hours following the administration of compound, animals are sacrificed, and brains as well as cerebrospinal fluid (CSF) and plasma are removed for analysis of A-beta levels and drug or test compound concentrations (Dovey et al., 2001, Journal of Neurochemistry, 76,173-181) Beginning at time 0, animals are administered by oral gavage, or other means of delivery such as intravenous injection, an inhibitory test compound of up to 100 mg/kg in a standard, conventional formulation, such as 2% hydroxypropyl methylcellulose, 1% Tween80. A separate group of animals receive 2% hydroxypropyl methylcellulose, 1% Tween80 alone, containing no test compound, and serve as a vehicle-control group. At the end of the test period, animals are sacrificed and brain tissues, plasma or cerebrospinal fluid are collected. […] Homogenates are centrifuged at 355,000 g, 4° C. for 30 minutes. CSF or brain supernatants are then analyzed for the presence of A-beta peptide by specific sandwich ELISA assays based on ECL (Electrochemiluminescence) technology. For example, rat Abeta40 is measured using biotinylated-4G8 (Signet) as a capture antibody and Fab40 (an in-house antibody specific to the C-terminal of Abeta40) as a detection antibody.
as §2

Chain of human recombinant BACE1 (P56817 46-501): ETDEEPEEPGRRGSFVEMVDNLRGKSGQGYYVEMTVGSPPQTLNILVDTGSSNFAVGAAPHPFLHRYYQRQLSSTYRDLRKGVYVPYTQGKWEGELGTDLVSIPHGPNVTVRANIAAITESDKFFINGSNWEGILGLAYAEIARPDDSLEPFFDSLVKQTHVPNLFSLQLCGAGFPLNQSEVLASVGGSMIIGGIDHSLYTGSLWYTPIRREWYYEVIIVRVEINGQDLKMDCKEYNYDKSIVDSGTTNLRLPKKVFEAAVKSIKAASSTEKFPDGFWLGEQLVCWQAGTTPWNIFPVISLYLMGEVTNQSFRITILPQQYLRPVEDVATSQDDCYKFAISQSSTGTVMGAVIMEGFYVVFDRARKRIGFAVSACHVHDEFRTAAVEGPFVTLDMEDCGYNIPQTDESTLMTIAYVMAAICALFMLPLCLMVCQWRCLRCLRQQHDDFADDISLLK
Chain of Recombinant Cat D (P07339 65-412): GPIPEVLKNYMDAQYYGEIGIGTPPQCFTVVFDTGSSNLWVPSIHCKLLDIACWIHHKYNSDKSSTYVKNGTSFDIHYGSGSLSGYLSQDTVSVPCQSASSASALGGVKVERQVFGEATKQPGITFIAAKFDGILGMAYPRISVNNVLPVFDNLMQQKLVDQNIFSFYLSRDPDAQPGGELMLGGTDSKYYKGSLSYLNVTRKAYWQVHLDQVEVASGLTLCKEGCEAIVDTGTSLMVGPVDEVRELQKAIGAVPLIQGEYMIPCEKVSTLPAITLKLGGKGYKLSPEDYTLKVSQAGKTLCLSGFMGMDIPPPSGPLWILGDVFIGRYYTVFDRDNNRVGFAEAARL
Chain of human recombinant BACE2 (Q9Y5Z0 63-518): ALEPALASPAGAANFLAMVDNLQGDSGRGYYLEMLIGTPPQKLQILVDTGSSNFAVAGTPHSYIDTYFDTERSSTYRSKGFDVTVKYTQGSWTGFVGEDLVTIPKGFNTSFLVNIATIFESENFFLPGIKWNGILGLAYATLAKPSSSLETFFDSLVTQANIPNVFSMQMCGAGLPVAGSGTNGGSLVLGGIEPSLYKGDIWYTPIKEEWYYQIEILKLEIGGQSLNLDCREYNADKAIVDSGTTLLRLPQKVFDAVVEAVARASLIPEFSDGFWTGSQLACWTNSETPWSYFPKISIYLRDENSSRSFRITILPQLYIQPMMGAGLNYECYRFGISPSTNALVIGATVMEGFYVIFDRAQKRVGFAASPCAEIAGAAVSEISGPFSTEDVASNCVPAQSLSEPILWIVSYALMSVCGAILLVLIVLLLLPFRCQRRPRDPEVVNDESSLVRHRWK

Row | IC50 (human recombinant BACE2; BACE2 FRET enzyme assay) [µM] | IC50 ([1]; BACE1 cell-based assay) [µM] | IC50 (human recombinant BACE1; BACE1 FRET enzyme assay) [µM] | IC50 (Recombinant Cat D; Cathepsin D FRET enzyme assay) [µM] | IC50 (human recombinant BACE2) [µM] | IC50 [1] [µM] | IC50 (human recombinant BACE1) [µM] | IC50 (Recombinant Cat D) [µM] | Structure (SMILES) | % Aβ 40 reduction in rat CSF at 10 mpk (Aβ 40 in rat CSF) [%] | % Aβ 40 reduction in rat brain at 10 mpk (Aβ 40 in rat brain) [%] | % Aβ 40 reduction in rat CSF (3 mpk) (Aβ 40 in rat CSF; 3 mpk) | % Aβ 40 reduction in rat brain (3 mpk) (Aβ 40 in rat brain; 3 mpk)
1 | < 0.00203 | 0.00196 | 0.00139 | > 44.4 | – | – | – | – | C[C@]1(c2cc(Nc3nccc4cc(C#N)cnc34)cc(F)c2F)N=C(N)S[C@@]2(CO)C[C@H]21 [Example 54, 8-((3-((1S,5S,6S)-3-amino-1-(hydroxymethyl)-5-methyl-2-thia-4-azabicyclo[4.1.0]hept-3-en-5-yl)-4,5-difluorophenyl)amino)-1,7-naphthyridine-3-carbonitrile] | 18 | 19 | – | –
2 | 0.00749 | 0.0084 | 0.00631 | 1760 | – | – | – | – | NC1=N[C@](CF)(c2cc(Nc3ncnc4cc(Cl)cnc34)ccc2F)[C@@H]2C[C@]2(CO)S1 [Example 49, ((1S,5S,6S)-3-amino-5-(5-((7-chloropyrido[3,2-d]pyrimidin-4-yl)amino)-2-fluorophenyl)-5-(fluoromethyl)-2-thia-4-azabicyclo[4.1.0]hept-3-en-1-yl)methanol] | 24 | 14 | – | –
3 | – | – | – | – | 0.0258 | 0.002 | 0.0009 | 447 | C#CCOc1cnc2c(Nc3cc(F)c(F)c([C@@]4(C)N=C(N)S[C@@]5(CF)C[C@H]54)c3)ncnc2c1 [Example 813, N-(3-((1S,5S,6S)-3-amino-1-(fluoromethyl)-5-methyl-2-thia-4-azabicyclo[4.1.0]hept-3-en-5-yl)-4,5-difluorophenyl)-7-(2-propyn-1-yloxy)pyrido[3,2-d]pyrimidin-4-amine] | 68 | 50 | – | –
4 | – | – | – | – | 0.0808 | 0.0116 | 0.000918 | 776 | COC[C@]12C[C@H]1[C@@](C)(c1cc(NC(=O)c3cnc(OCC4CC4)cn3)cc(F)c1F)N=C(N)S2 [Example 1021, N-(3-((1S,5S,6S)-3-amino-1-(methoxymethyl)-5-methyl-2-thia-4-azabicyclo[4.1.0]hept-3-en-5-yl)-4,5-difluorophenyl)-5-(cyclopropylmethoxy)-2-pyrazinecarboxamide] | 44 | 25 | – | –
5 | – | – | – | – | 0.143 | 0.00281 | 0.00294 | 311 | CN(C)C(=O)/C=C/[C@]12C[C@H]1[C@@](CF)(c1cc(Nc3nccc4cc(OCc5ncco5)cnc34)ccc1F)N=C(N)S2 [Example 770, (2E)-3-((1R,5S,6S)-3-amino-5-(fluoromethyl)-5-(2-fluoro-5-((3-(1,3-oxazol-2-ylmethoxy)-1,7-naphthyridin-8-yl)amino)phenyl)-2-thia-4-azabicyclo[4.1.0]hept-3-en-1-yl)-N,N-dimethyl-2-propenamide] | 22 | 6 | – | –
6 | – | – | – | – | 0.0296 | 0.00186 | 0.000791 | 351 | C#CCOc1cnc2c(Nc3ccc(F)c([C@@]4(C)N=C(N)S[C@@]5(CF)C[C@H]54)c3)nccc2n1 [Example 823, N-(3-((1S,5S,6S)-3-amino-1-(fluoromethyl)-5-methyl-2-thia-4-azabicyclo[4.1.0]hept-3-en-5-yl)-4-fluorophenyl)-2-(2-propyn-1-yloxy)pyrido[3,4-b]pyrazin-5-amine] | 78 | 78 | – | –
7 | – | – | – | – | 0.579 | 0.0286 | 0.00612 | 747 | Cc1cc(OCC(F)(F)F)cnc1C(=O)Nc1cc(F)c(F)c([C@@]2(C)N=C(N)S[C@@]3(CF)C[C@H]32)c1 [Example 678, N-(3-((1S,5S,6S)-3-amino-1-(fluoromethyl)-5-methyl-2-thia-4-azabicyclo[4.1.0]hept-3-en-5-yl)-4,5-difluorophenyl)-3-methyl-5-(2,2,2-trifluoroethoxy)-2-pyridinecarboxamide] | 40 | 11 | – | –
8 | 0.0275 | 0.0119 | 0.0104 | > 400 | – | – | – | – | N#Cc1ccc(C(=O)Nc2cc(F)c(F)c([C@@]3(CF)N=C(N)S[C@H]4C[C@H]43)c2)nc1 [Example 11, N-(3-((1S,5S,6S)-3-amino-5-(fluoromethyl)-2-thia-4-azabicyclo[4.1.0]hept-3-en-5-yl)-4,5-difluorophenyl)-5-cyano-2-pyridinecarboxamide] | – | – | 41 (3 mpk) % | 25 (3 mpk) %
9 | – | – | – | – | 0.0642 | 0.00167 | 0.000827 | 118 | C[C@]1(c2cc(Nc3ncnc4cc(OCc5ncco5)cnc34)cc(F)c2F)N=C(N)S[C@@]2(C(F)F)C[C@@H]12 [Example 812, N-(3-((1S,5S,6S)-3-amino-1-(difluoromethyl)-5-methyl-2-thia-4-azabicyclo[4.1.0]hept-3-en-5-yl)-4,5-difluorophenyl)-7-(1,3-oxazol-2-ylmethoxy)pyrido[3,2-d]pyrimidin-4-amine] | 52 | 38 | – | –
10 | – | – | – | – | 0.118 | 0.00359 | 0.00299 | > 400 | COC[C@]12C[C@H]1[C@@](C)(c1cc(NC(=O)c3cnc(OCC(F)(F)F)cn3)ccc1F)N=C(N)S2 [Example 831, N-(3-((1S,5S,6S)-3-amino-1-(methoxymethyl)-5-methyl-2-thia-4-azabicyclo[4.1.0]hept-3-en-5-yl)-4-fluorophenyl)-5-(2,2,2-trifluoroethoxy)-2-pyrazinecarboxamide] | 49 | 16 | – | –
